According to patent US10287259B2, “Selenazolidine and thiazolidine compounds for treating cancer and other diseases” (The Penn State Research Foundation, priority 2016, dated 2019):
pEC50, pIC50: −log10 of the molar value.

Assays:
Type in all cases: cell-based
[1] = test system: Panc-1 cells; assay: Live/dead assay with calcein-AM and ethidium bromide; details: Panc-1, 48 h; AS-10 2.5 μM, gemcitabine 50 μM
Experimental: To determine the dead cell population, we used LIVE/DEAD Viability/Cytotoxicity Kit (L3224, Life technologies, USA). Panc-1 cells were treated with either DMSO, gemcitabine (50 μM), or AS-10 (2.5 μM) or in combination for 48 h. Live and dead cells were determined by subjecting treated cells to LIVE/DEAD Viability/Cytotoxicity Kit (Plano et al., 2016, J. Med. Chem. 1946-1959). […] While ethidium homodimer-1 can only enter cells who have lost their plasma membrane integrity or dead cells and fluorescents red. Stained cells were visualized using a fluorescence microscope (Zeiss—Axio Scope.A1) with a 20× objective lens. Percentage values of live and dead cells were calculated.

[2] = test system: Panc-1 cells; assay: Cell cycle analysis by flow cytometry; details: serum starved 72 h; 24 h to 60 h time points
Experimental: Flow cytometry was used to determine the cell cycle phases (Plano et al., 2016, J. Med. Chem. 1946-1959). In brief, Panc-1 cells were serum starved for 72 h, followed by treatment with different doses of AS-10 in 10% serum containing media for different time points. Treated cells were fixed in 70% cold ethanol at the end of each time point. Cells were fixed for a minimum of 4 h at 4° C. Following fixation, cells were washed with 1×PBS and were re-suspended in Propidium iodide (PI) staining solution (0.1% (v/v) triton X-100, 20 mg DNAse-free RNAse A and 2 mg of PI in 100 mL PBS). Cells were incubated in the staining solution for 15 minutes at room temperature and then analyzed by a BD FACS Calibur (BD Biosciences) for total DNA content. Modfit software (BD Biosciences) was used to obtain the histograms.

[3] = test system: Panc-1 cells; assay: Muse caspase 3/7 activity assay; details: Panc-1, 10 μM
Experimental: To evaluate the efficacy of AS-10 in inducing caspase 3, Panc-1 cells were treated with AS-10 at different concentrations for different time points. Caspase 3/7 activity was measured using Muse Caspase-3/7 Assay kit with Muse cell analyzer (EMD Millipore, Billercia, Mass. USA) according to manufacturer's protocol (Plano et al., 2016, J. Med. Chem. 1946-1959). In brief, the Muse Caspase 3/7 kit contains a reagent namely NucView for detection of activated caspase 3/7. The reagent is cell membrane permeable and contains a DNA binding dye that is linked to a DEVD peptide substrate. In presence of activated caspase 3/7, DEVD is cleaved and DNA binding dye is released. Therefore, cells with active caspase 3/7 activity will yield high fluorescence. (Ref Millipore, Catlog No. MCH100108). The kit also contains a dead cell marker, 7-AAD, for detection of cells with compromised cell membrane. Data from Muse cell analyzer were analyzed using Muse 1.4 software.

[4] = test system: BxPC3 cells; assay: MTT cell viability assay, BxPC3; details: Homo sapiens, BXPC-3, different time points (24, 48, 72 h)
Experimental: (§1) MTT (3-(4,5-dimethylthiazol-2-yl)-2,5-diphenyltetrazolium) assay was performed to determine the effect of AS-10 on cancer cell viability (Plano et al., 2016, J. Med. Chem. 1946-1959; Alcolea et al., 2012, Eur. J. Med. Chem. 113:134-144; Kumar et al., 2014, Eur. J. Med. Chem. 81:267-276). Briefly, 3×10^3 cells were treated with different concentrations of AS-10 in triplicate in a 96-well plate for different time points. MTT solution (20 μL of 5.0 mg/mL solution) was added to each well, three hours prior to termination time point and incubated at 37° C. Resultant formazan crystals, at termination time point, were dissolved in 50 μL DMSO. The plate was subjected to a 96-well multiscanner (Dynex Technologies, MRX Revelation; Chantilly, Va., USA) for measuring the optical densities at 570 nm and 630 nm. IC50 values were determined by performing non-linear regression using Graphpad Prism software.
To test the anti-cancer activity of AS-10 in pancreatic cancer (PC) cell lines, a MTT assay was performed. PC cell lines, Panc-1 and BxPC3, were treated with AS-10 at different doses at different time points (24, 48, and 72 h). Resulting cells were subjected to MTT cell viability assay. […] After 48 h, live cells were counted and plated in a new petri dish. […] At the end of 17 days the colonies were counted and compared to the untreated cells.

[5] = test system: NF-κB p65; assay: Immunocytochemistry for NF-κB p65 localization; details: Panc-1, 10 μM 6 h, TNF-α 30 min
Experimental: Immunocytochemistry was used to determine the translocation of p65 from cytoplasm to nucleus in presence of inflammatory stimuli either with vehicle or AS-10 (10 μM). In a 12 well plate, Panc-1 cells (1.6×10^5) were seeded on top of a small cover slip in DMEM medium. Cells were allowed to attach to the cover slip overnight at 37° C. incubator with 5% CO2. The next day, cells were treated with 10 μM AS-10 for 6 h and further stimulated with TNF-α (100 ng/mL, 3.9 nM) for 30 min. Exactly after 30 min plates were kept on ice and cells were fixed with 4% Formaldehyde Solution made in PBS for 15 min. Cells were washes three times with 1×PBS, followed by 1 h incubation in blocking medium (0.3% Triton X-100, 5% donkey serum, made in 1×PBS) at room temperature in dark. After blocking coverslips were incubated with primary antibody solution (primary antibody diluted 1:500 in 1% BSA solution containing 0.3% Triton X-100) over night at 4° C. Next day, primary antibody was removed and cover slips were washed three times with 1×PBS. Following incubation with 0.03% H2O2 for 15 minutes at room temperature in dark. After the incubation, secondary antibody (Alexa fluor 680) was added at dilution of 1:500 in 1% BSA containing 0.3% triton X-100 and further incubated for 1 hr. […]

[6] = test system: Panc-1 cells; assay: MTT cell viability assay, Panc-1; details: for pIC50: Homo sapiens
Experimental: as §1
To test the anti-cancer activity of AS-10 in pancreatic cancer (PC) cell lines, a MTT assay was performed. PC cell lines, Panc-1 and BxPC3, were treated with AS-10 at different doses at different time points (24, 48, and 72 h). Resulting cells were subjected to MTT cell viability assay. […] Panc-1 cells were treated with different doses of AS-10 for 48 h. After 48 h, live cells were counted and plated in a new petri dish. Cells were allowed to form colonies for 17 days. At the end of 17 days the colonies were counted and compared to the untreated cells.

[7] = test system: pancreatic cancer cells; assay: MTT cell viability assay, pancreatic cancer (PC) cells; details: Pancreatic cancer cell
Experimental: as §1

CC(=O)Oc1ccccc1C(=O)/N=C1\[Se]CCN1C(=O)c1ccccc1OC(C)=O [AS-10, 2-((3-(2-acetoxybenzoyl)-1,3-selenazolidin-2-ylidene)carbamoyl)phenyl acetate]
dead cells [1]: ~10% | cell cycle effect [2]: cell cycle arrest in G1 and G2/M phase and total inhibition of S phase | mode of cell death (caspase 3/7 activity, Annexin V) [3]: die in an apoptotic manner | necrosis (cells only positive for 7-ADD) [3]: did not induce necrosis | pIC50 [4]: 5.30 to 6.00 | translocation of p65 to the nucleus [5]: unable to translocate to the nucleus | pIC50 ([6]; PANC-1, 48 h): 5.60 to 6.00 | pIC50 ([6]; Panc-1, different time points (24, 48, 72 h)): 5.30 to 6.00 | potency relative to gemcitabine ([6]; Panc-1, 48 h): > 500 times | pEC50 ([7]; in vitro, read-out: EC50, reduction of PC cell growth): 5.30 to 5.60 | pIC50 ([7]; read-out: IC50, cytotoxicity to pancreatic cancer cells): 5.60 to 6.30
